# Where two headings read alike, the source gives them in different places.
# What was measured:
# [1] = test system: 3D7-MR4 trophozoite parasite-infected RBCs; test: Metabolomic profiling (hydrophilic metabolite changes, UHPLC-MS); format: cell-based, Plasmodium falciparum
# [2] = test system: Plasmodium falciparum 3D7-A10 parasites; test: Stage specificity assay (8-h exposure of synchronized stages, IC50^8h); format: cell-based; conditions: for IC50: Plasmodium falciparum
# [3] = test system: 3D7-MR4 trophozoite parasite-infected RBCs; conditions: 10 × IC50^72h; ref Allman et al., 2016; cited from earlier work
# [4] = test system: asynchronous 3D7-A10 parasite cultures; test: Standard 72-h exposure asexual blood stage susceptibility assay (IC50^72h); format: cell-based, Plasmodium falciparum; conditions: Plasmodium falciparum, 3D7, 72 h, read-out: Overall (72hr assay) Mean IC50 (IC50^72h)
structure (smiles),measurement,setting,value
COCCNCC(O)Cn1c2ccc(Cl)cc2c2cc(Cl)ccc21 (stereo not shown) [MMV019017],Log2(fold changes) 3-phosphoglycerate,"[1]; metabolite 3-phosphoglycerate, log2 fold change",-0.1375
same,Log2(fold changes) 4-Pyridoxic acid,"[1]; metabolite 4-Pyridoxic acid, log2 fold change",0.0658
same,Log2(fold changes) 4-aminobutyrate,"[1]; metabolite 4-aminobutyrate, log2 fold change",1.1150
same,Log2(fold changes) 4-phosphopantetheine,"[1]; metabolite 4-phosphopantetheine, log2 fold change",0.0000
same,Log2(fold changes) 4-phosphopantothenate,"[1]; metabolite 4-phosphopantothenate, log2 fold change",-1.0497
same,Log2(fold changes) 5-aminopentanoic acid,"[1]; metabolite 5-aminopentanoic acid, log2 fold change",0.0000
same,Log2(fold changes) 5-methyl-THF,"[1]; metabolite 5-methyl-THF, log2 fold change",0.0000
same,Log2(fold changes) 5-phosphoribosyl-1-pyrophosphate,"[1]; metabolite 5-phosphoribosyl-1-pyrophosphate, log2 fold change",-1.1636
same,Log2(fold changes) 6-phospho-D-gluconate,"[1]; metabolite 6-phospho-D-gluconate, log2 fold change",-0.4356
same,Log2(fold change) HVDD,[1]; metabolite HVDD,0.0000
same,Log2(fold change) Hydroxyisocaproic acid,[1]; metabolite Hydroxyisocaproic acid,0.0000
same,Log2(fold change) IDP,[1]; metabolite IDP,0.0000
same,Log2(fold change) IMP,[1]; metabolite IMP,0.0176
same,Log2(fold change) Inositol,[1]; metabolite Inositol,0.0000
same,Log2(fold change) Isopentyl-PP,[1]; metabolite Isopentyl-PP,0.0000
same,Log2(fold change) L-arginino-succinate,[1]; metabolite L-arginino-succinate,0.0000
same,Log2(fold change) LD,[1]; metabolite LD,-2.3846
same,Log2(fold change) Myristoyl/tetradecanoyl-CoA,[1]; metabolite Myristoyl/tetradecanoyl-CoA,0.0000
same,Log2(fold change) N-Acetyl-L-alanine,[1]; metabolite N-Acetyl-L-alanine,-0.1766
same,Log2(fold change) N-acetyl-L-ornithine,[1]; metabolite N-acetyl-L-ornithine,-1.7936
same,Log2(fold change) N-acetyl-glucosamine-1/6-phosphate,[1]; metabolite N-acetyl-glucosamine-1/6-phosphate,-1.5222
same,Log2(fold change) N-acetyl-glutamate,[1]; metabolite N-acetyl-glutamate,0.3951
same,Log2(fold change) N-acetyl-glutamine,[1]; metabolite N-acetyl-glutamine,0.6689
same,Log2(fold change) N-carbamoyl-L-aspartate,[1]; metabolite N-carbamoyl-L-aspartate,-1.9472
same,Log2(fold change) NAD+,[1]; metabolite NAD+,-0.1399
same,Log2(fold change) NADH,[1]; metabolite NADH,0.8540
same,Log2(fold change) NADP+,[1]; metabolite NADP+,0.2168
same,Log2(fold change) NADPH,[1]; metabolite NADPH,0.4083
same,Log2(fold change) O-acetyl-L-serine,[1]; metabolite O-acetyl-L-serine,0.0000
same,Log2(fold change) Octoluse 8/1P,[1]; metabolite Octoluse 8/1P,-0.2135
same,Log2(fold change) Octoluse Bisphosphate,[1]; metabolite Octoluse Bisphosphate,-5.4193
same,Log2(fold change) PD,[1]; metabolite PD,-1.1341
same,Log2(fold change) PE,[1]; metabolite PE,0.0923
same,Log2(fold change) PEE,[1]; metabolite PEE,0.2942
same,Log2(fold change) PEEK,[1]; metabolite PEEK,-0.4238
same,Log2(fold change) PVNF,[1]; metabolite PVNF,-4.6843
same,Log2(fold change) Pyroglutamic acid,[1]; metabolite Pyroglutamic acid,0.4950
same,Log2(fold change) Pyrophosphate,[1]; metabolite Pyrophosphate,-2.5918
same,Log2(fold change) Ribose-5-phosphate,[1]; metabolite Ribose-5-phosphate,0.0000
same,Log2(fold change) S-adenosyl-L-homocysteine,[1]; metabolite S-adenosyl-L-homocysteine,-0.4383
same,Log2(fold change) S-adenosyl-L-methioninamine,[1]; metabolite S-adenosyl-L-methioninamine,0.0000
same,Log2(fold change) S-adenosyl-L-methionine,[1]; metabolite S-adenosyl-L-methionine,0.0000
same,Log2(fold change) S-methyl-5'-thioadenosine,[1]; metabolite S-methyl-5'-thioadenosine,0.0000
same,Log2(fold change) SD,[1]; metabolite SD,-1.6540
same,Log2(fold change) SDL,[1]; metabolite SDL,0.0000
same,Log2(fold change) SID,[1]; metabolite SID,0.0000
same,Log2(fold change) Sedoheptulose bisphosphate,[1]; metabolite Sedoheptulose bisphosphate,-1.7256
same,Log2(fold change) Thiamine pyrophosphate,[1]; metabolite Thiamine pyrophosphate,0.0000
same,Log2(fold changes) UDP-D-glucose,"[1]; metabolite UDP-D-glucose, log2 fold change",0.0449
same,Log2(fold changes) UDP-D-glucuronate,"[1]; metabolite UDP-D-glucuronate, log2 fold change",-0.4277
same,Log2(fold changes) UDP-N-acetyl-glucosamine,"[1]; metabolite UDP-N-acetyl-glucosamine, log2 fold change",-0.2402
same,Log2(fold changes) UDP,"[1]; metabolite UDP, log2 fold change",-1.4536
same,Log2(fold changes) UMP,"[1]; metabolite UMP, log2 fold change",-0.1145
same,Log2(fold changes) UTP,"[1]; metabolite UTP, log2 fold change",-1.8511
same,Log2(fold change) hydroxyphenylpyruvate,[1]; metabolite hydroxyphenylpyruvate,0.0000
same,Log2(fold change) hydroxyproline/Aminolevulinate,[1]; metabolite hydroxyproline/Aminolevulinate,0.0000
same,Log2(fold change) hypoxanthine,[1]; metabolite hypoxanthine,1.0399
same,Log2(fold change) indole,[1]; metabolite indole,0.2468
same,Log2(fold change) inosine,[1]; metabolite inosine,0.3793
same,Log2(fold change) isoleucine,[1]; metabolite isoleucine,0.0000
same,Log2(fold change) lactate,[1]; metabolite lactate,-0.6725
same,Log2(fold change) leucine,[1]; metabolite leucine,0.0000
same,Log2(fold change) lysine,[1]; metabolite lysine,0.0000
same,Log2(fold change) malate,[1]; metabolite malate,0.0811
same,Log2(fold change) maleic acid,[1]; metabolite maleic acid,0.0000
same,Log2(fold change) methionine,[1]; metabolite methionine,0.0000
same,Log2(fold change) myo-inositol,[1]; metabolite myo-inositol,-2.8253
same,Log2(fold change) nicotinamide mononucleotide,[1]; metabolite nicotinamide mononucleotide,0.0000
same,Log2(fold change) nicotinate,[1]; metabolite nicotinate,1.9078
same,Log2(fold change) ornithine,[1]; metabolite ornithine,0.0801
same,Log2(fold change) orotate,[1]; metabolite orotate,1.9702
same,Log2(fold change) orotidine-5'-phosphate,[1]; metabolite orotidine-5'-phosphate,0.0000
same,Log2(fold change) oxaloacetate,[1]; metabolite oxaloacetate,0.0000
same,Log2(fold change) p-aminobenzoate,[1]; metabolite p-aminobenzoate,0.0000
same,Log2(fold change) p-hydroxybenzoate,[1]; metabolite p-hydroxybenzoate,0.7031
same,Log2(fold change) pantothenate,[1]; metabolite pantothenate,0.0000
same,Log2(fold change) phenylalanine,[1]; metabolite phenylalanine,0.0000
same,Log2(fold change) phenylpyruvate,[1]; metabolite phenylpyruvate,1.2139
same,Log2(fold change) phosphoenolpyruvate,[1]; metabolite phosphoenolpyruvate,0.7560
same,Log2(fold change) prephenate,[1]; metabolite prephenate,0.0000
same,Log2(fold change) proline,[1]; metabolite proline,0.0000
same,Log2(fold change) pyridoxine,[1]; metabolite pyridoxine,0.0000
same,Log2(fold change) pyruvate,[1]; metabolite pyruvate,-0.9980
same,Log2(fold change) riboflavin,[1]; metabolite riboflavin,0.0000
same,Log2(fold change) ribose,[1]; metabolite ribose,0.0000
same,Log2(fold change) ribose-phosphate,[1]; metabolite ribose-phosphate,-0.9470
same,Log2(fold change) ribulose-5-phosphate,[1]; metabolite ribulose-5-phosphate,0.0000
same,Log2(fold change) serine,[1]; metabolite serine,0.0000
same,Log2(fold change) sn-glycerol-3-phosphate,[1]; metabolite sn-glycerol-3-phosphate,0.0194
same,Log2(fold change) succinate/Methylmalonic acid,[1]; metabolite succinate/Methylmalonic acid,0.4365
same,Log2(fold change) succinyl-CoA/methylmalonyl-CoA,[1]; metabolite succinyl-CoA/methylmalonyl-CoA,0.0000
same,Log2(fold change) taurine,[1]; metabolite taurine,0.0000
same,Log2(fold change) thiamine,[1]; metabolite thiamine,0.0000
same,Log2(fold change) threonine/homoserine,[1]; metabolite threonine/homoserine,0.0000
same,Log2(fold change) thymidine,[1]; metabolite thymidine,-1.7681
same,Log2(fold changes) thymine,"[1]; metabolite thymine, log2 fold change",-1.7003
same,Log2(fold changes) trehalose-6-Phosphate,"[1]; metabolite trehalose-6-Phosphate, log2 fold change",0.0000
same,Log2(fold changes) tryptophan,"[1]; metabolite tryptophan, log2 fold change",0.0000
same,Log2(fold changes) tyrosine,"[1]; metabolite tyrosine, log2 fold change",0.0000
same,Log2(fold changes) uridine,"[1]; metabolite uridine, log2 fold change",-0.5758
same,Ratio lowest IC50 8hr/IC50 72hr,[2]; 3D7-A10,4.4
same,IC50,"[2]; 3D7, 8 h, read-out: IC50^8h values at all tested stages, 8-h exposures, all asexual blood stages",> 1000 nM
same,IC50,"[2]; 3D7, read-out: Early rings Mean IC50 (IC50^8h), 8-h exposure 0–8 hr, 3D7-A10, survival at 60 h",8420 nM
same,IC50,"[2]; 3D7, read-out: Early trophozoites Mean IC50 (IC50^8h), 8-h exposure 16–24 hr, 3D7-A10, survival at 60 h",1340 nM
same,IC50,"[2]; 3D7, read-out: Late rings Mean IC50 (IC50^8h), 8-h exposure 8–16 hr, 3D7-A10, survival at 60 h",8660 nM
same,IC50,"[2]; 3D7, read-out: Late trophozoites Mean IC50 (IC50^8h), 8-h exposure 24–32 hr, 3D7-A10, survival at 60 h",1710 nM
same,IC50,"[2]; 3D7, read-out: Schizonts Mean IC50 (IC50^8h), 8-h exposure 32–40 hr, 3D7-A10, survival at 60 h",3060 nM
same,levels of cAMP,[3],decreased
same,levels of the deoxyribonucleotides dAMP and dTMP,[3],increased
same,"nucleoside di- and tri-phosphate levels (GDP, UDP, GTP, dATP, dGTP/ATP, dUTP)",[3],decreased
same,peptide levels (hemoglobin catabolism signature),[3],decreased peptide levels
same,IC50,[4],306 nM

# From paper PMC7031696 (Cell chemical biology, 2019)
